Where a name gives a salt, the structure may show the parent alone. Read-outs that look alike come from different tables or passages of the source.
Assays:
[1] = tested on: fungus; assay: Fungus growth on treated foods stored in closed containers at room temperature;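 on Effectiveness on ginger: compared with untreated control ginger in closed containers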
Text: (§1) Most of the foods changed color or texture.
Glass jars and bottles were also used. The containers were snap-closed or with a lid.
(§2) These bags were sealed with a heat sealer.
(§3) The assembly was shaken periodically.

[2] = tested on: green tomato, papaya, banana, mango, peppers, tindora; assay: Ripening of fruits and vegetables (delayed or expedited); settings: for Spoilage Time - Sample (Expedited ripening): control 14+ days; for Ripening, green-to-yellow (or red) color-change: pre-dipping into 10% solution
Experimental: (§4) All studies were conducted at a room temperature of about 25° C. To determine the effectiveness of a shelf-life extender, a control sample which was untreated with any shelf-life extenders, was tested identical to the test samples. […] All studies in those Examples of Tables 1-6 were conducted in closed plastic or glass containers. Containers, such as plastic containers, without or with lids having holes can be used if it is advantageous to let excess moisture escape or to prevent condensation of moisture released by some produce.
(§5) For controlled exposure and a constant supply of a preservative to foods, sachets containing one or more drops of preservatives were used. Sachets were made by placing an appropriate amount of a preservative in a plastic bag containing a piece of paper and heat sealing the bag. The sachet bag materials used were Tyvek® for solid preservative, polyethylene, polyester and high barrier multilayer films were used for liquid preservatives. These bags were sealed with a heat sealer. The sachet was typically applied on one side of the container containing food.
(§6) A piece of paper napkin was taped inside a 100 microns thick polyethylene or polyester Ziploc bag. The size of the bag varied from ˜20 cm×30 cm to ˜60 cm×90 cm depended on the sample with sandwich bags up to gallon bags being exemplary. The paper napkin was wetted with 0.1-0.5 ml of a preservative or a mixture of preservatives. A tray of aluminum, stainless steel or glass containing the foods was placed inside the plastic (polyethylene, polyester and multilayer-laminated) bag and almost closed by locking the Ziploc. Air was blown with an air blower from the unclosed end until the bag was fully blown and then quickly closed tightly by locking the remaining Ziploc. If a preservative was a sublimable solid, it was placed in a petri dish and then placed inside the bag in the tray before blowing air. The exposure time was varied from five minutes to a day depending upon the food. […] The assembly was shaken periodically. After the predetermined time, the tray containing produce was removed from the bag, allowed to de-gas for 10-30 minutes in air and the produce was then placed in an appropriately sized container. Glass and stainless steel containers with lids were also often used.
(§7) A solution of one or more preservatives was prepared in a large (e.g., 2-10 liter) glass beaker or a jar. A sack containing the food was prepared by placing the food in a plastic mesh bag. The sack was placed in the solution of the preservative. A smaller glass beaker containing proper amount of water was place over the package to keep the sack soaked in the solution of the preservative during the treatment. The solution was stirred either with a plastic spatula or with a magnet over a magnetic stirrer. After treatment, the mesh sack was removed, the produce was washed in a tray with running water, strained and air dried at 30° C. in an air blowing oven for about 5-10 minutes, while shaking the tray or turning the food periodically followed by placing the sample in an appropriate container.
The untreated (control sample) and treated food were placed in proper sized plastic containers and the containers were tightly closed.
The following major criteria were used for determining spoilage of foods: growth of fungus, color change, unpleasant odor, wilting, firmness or shriveling, change of state (liquid to solid or vice versa), and sprouting or germination Example 10: Sources of food.

[3] = General shelf-life extension of foods (spoilage criteria of Example 9); settings: for Effectiveness for controlling one or more spoilage criteria: variety of foods
Experimental: as §4
(§8) Food exposed to preservatives or by a sachet was placed in typically polystyrene or acrylic containers depending upon the size and number of food items. Glass jars and bottles were also used. The containers were snap-closed or with a lid. The containers were purchased mainly from Amazon or Webstaurant.com store. When needed, plastic containers with holes or without lids were used.
as §5, §6, §7
(§9) The food was placed in mesh trays and sprayed with an aqueous solution (1-10%) of a preservative while shaking the tray or turning the food. The solution was allowed to drain from the tray and the food was air dried in an air blowing oven at 30° C. for about 5-10 minutes, while shaking the tray or turning food periodically followed by placing the sample in an appropriate container.

[4] = Color change / browning / yellowing of foods (keeping produce green longer); settings: for Spoilage Time - Sample (Color change): 2% in water sprayed
Experimental: as §4, §8, §5, §6, §7, §9

[5] = tested on: grains, legumes, potatoes, garlic; assay: Germination / sprouting of grains, legumes and tubers; settings: for Spoilage Time - Sample: Example 111, Germination, Mixed Legumes, 64 hrs P-E, control 3 days
Text: as §2, §3

[6] = tested on: avocado; assay: Softening / rotten inside (spoiled flesh) of avocado
Text: as §1, §3

[7] = Color loss of meat and fish; settings: for Spoilage Time - Sample (Color loss): Sachet, control 2 days
Text: as §1, §2

[8] = tested on: parval, methi, coriander, radish, guar; assay: Shriveling / wilting / dehydration / becoming wet of produce; settings: for Spoilage Time - Sample (Dehydration): 0.08 hr soaking in 22% solution in water
Text: as §1, §3

[9] = Curdling / cream / solidification of milk; settings: pasteurized whole and fat-free milk;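 further: compared with untreated control milk in closed containers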
Text: as §1

Compound: CCCCOCCO [2-butoxyethanol, 2-Butoxyethanol]
- Fungus growth ([1]; 312 h): > 29 days
- Spoilage Time - Sample (Fungus) ([1]; Red tomato, 2 hrs P-E, control 13 days): 29 days
- Spoilage Time - Sample (Expedited ripening) ([2]; Mango, Sachet): 8 days
- Effectiveness for controlling one or more spoilage criteria [3]: effective to a greater or lesser extent

Compound: CCOCCO [2-ethoxyethanol, 2-Ethoxyethanol]
- Spoilage Time - Sample (Ripening) ([2]; Mango, 2 hrs P-E, control 16 days): 23 days

Compound: O=C1C=CCCC1 [2CY, 2-Cyclohexen-1-one]
- Effectiveness on ginger ([1]; ginger, pre-exposure and sachet method): found effective
- Spoilage Time - Sample ([4]; Example 114, Yellowing, Coriander, 1 hr P-E, control 10 days): 10+ days
- Spoilage Time - Sample ([4]; Example 114, Yellowing, Coriander, 1 hr P-E, control 10 days, listed as 2-cyclohexen-1-one): significantly delayed
- Spoilage Time - Sample [5]: 3 days
- Spoilage Time - Sample ([5]; listed as 2-cyclohexen-1-one): delayed or prevented
- Spoilage Time - Sample ([2]; Example 112, Ripeness, Papaya, 2 hrs P-E, control 7 days): 11 days
- Spoilage Time - Sample ([2]; Example 112, Ripeness, Papaya, 2 hrs P-E, control 7 days, listed as 2-cyclohexen-1-one): at least 11 days
- Effectiveness in delaying the ripening of tomatoes ([2]; unsaturated versus saturated homolog): more effective
- Spoilage Time - Sample ([6]; Example 113, Softening, Avocado, 2 hrs P-E, control 2 days): 2 days
- Spoiling of the flesh with development of fungus ([6]; avocados, Examples 77, 78, 107, 108, 113 & 171): significantly delayed
- Shelf-life of flowery vegetables [3]: extended shelf-life
- Shelf-life of shelled and unshelled peanuts ([3]; peanuts): extended
- Effectiveness for controlling one or more spoilage criteria [3]: effective to a greater or lesser extent

Compound: NCCN [ED, Ethylenediamine]
- Spoilage Time - Sample ([4]; Example 131, Color change, Parsley, 0.25 hr P-E, control 7 days): 22+ days
- Spoilage Time - Sample ([4]; Example 131, Color change, Parsley, 0.25 hr P-E, control 7 days, listed as ethylenediamine): significantly delayed
- Spoilage Time - Sample ([2]; Example 132, Ripening, Banana, 0.25 hr P-E, control 18 days): 21+ days
- Spoilage Time - Sample ([2]; Example 132, Ripening, Banana, 0.25 hr P-E, control 18 days, listed as ethylenediamine): > 21 days
- Effectiveness for controlling one or more spoilage criteria [3]: effective to a greater or lesser extent

Compound: N.NC(=O)O [ammonium carbamate, Ammonium carbamate]
- Spoilage Time - Sample (Fungus) [1]: 80+ days
- Loss of pinkish fleshy color ([7]; Example 143, ground beef, sachet, 3rd day, control within 2 days): lost less fleshy pinkish color
- Shelf-life of flowery vegetables [3]: extended shelf-life

Compound: C[N+](C)(C)CCO.[Cl-] [choline chloride, Choline chloride]
- Spoilage Time - Sample (Color loss) ([4]; Broccoli, 1 hr soaking in 5% solution in water, control 1 day): 8 days
- Remaining green ([4]; Example 149, Bok choy, pre-dipped into 22% solution): remained green longer
- Color change ([4]; Example 150, parsley, pre-dipping/rinsing in 22% solution): delayed the color change
- Color change from green-to-yellow ([4]; Example 152, broccoli, dipped into 5% solution): significantly delayed
- Sprouting ([5]; Example 154, potatoes, pre-dipping into 10% solution): either prevented or significantly delayed
- Spoilage Time - Sample (Sprouting) ([5]; Fingerling Potatoes, 2 hrs soaking in 10% solution in water, control 10 days): 16 days
- Ripening, green-to-yellow (or red) color-change ([2]; Example 151, green chili peppers): delayed
- Ripening, green-to-yellow (or red) color-change ([2]; Example 153, Jalapeno peppers): delayed
- Spoilage Time - Sample (Ripening) ([2]; Jalapeño Peppers, 1 hr soaking in 10% solution in water, control 3 days): 8 days
- Spoilage Time - Sample (Ripening) ([2]; Peppers, 2 hrs soaking in 10% solution in water, control 6 days): 13 days
- Spoilage Time - Sample (Dehydration) ([8]; Bok Choy, control 7 days): 11 days
- Spoilage Time - Sample (Dehydration) ([8]; Parsley, control 7 days): 11 days

Compound: COC(=O)OC [dimethyl carbonate, Dimethyl carbonate]
- Expedited ripening ([2]; Example 155, mango, control around 14 days): 8 days
- Spoilage Time - Sample (Expedited ripening) ([2]; Mango, Sachet): 8 days
- Effectiveness for controlling one or more spoilage criteria [3]: effective to a greater or lesser extent

Compound: COC(=O)/C=C\C(=O)OC [dimethyl maleate, Dimethyl maleate]
- Ripening ([2]; Example 156, mangoes, sachet, control 16 days): 23 days
- Spoilage Time - Sample (Ripening) ([2]; Mango, Sachet, control 16 days): 23 days

Compound: O=C(O)C(O)c1ccccc1 (stereo not shown) [mandelic acid, Mandelic Acid]
- Spoilage of coriander ([4]; Example 161, soaking in 1% solution): significantly delayed
- Spoilage Time - Sample (Wet) ([8]; Coriander, 0.5 hr soaking in 1% solution in water, control 7 days): 7+ days

Compound: OB(O)c1ccccc1 [phenylboronic acid, Phenylboronic acid]
- Spoilage Time - Sample (Fungus) ([1]; Blueberry, 2% in water sprayed, control 6 days): 10+ days
- Spoilage Time - Sample (Fungus) ([1]; Strawberry, 2% in water sprayed, control 6 days): 10+ days
- Fungus growth ([1]; strawberries, raspberries, blackberries and lychee): either prevented or significantly delayed
- Spoilage Time - Sample (Color change) ([4]; Broccoli, control 4 days): 28 days
- Color change from green to brown on the skin ([4]; Example 137, limes, sprayed with 2% solution in water, room temperature, control 6 days): > 10 days
- Spoilage Time - Sample (Color change) ([4]; Lime, control 6 days): 6+ days
- Spoilage Time - Sample (Color change) ([4]; Methi, control 4 days): 28 days
- Curdling of milk [9]: delayed curdling
- Germination/sprouting ([5]; Example 140, grains, mainly unhusked rice and soft white wheat, 2% spray, control 2 days): > 10 days
- Spoilage Time - Sample (Germination) ([5]; Grains (mixed legumes and soft white wheat), 2% in water sprayed, control 2 days): 7+ days

Compound: (−)-Menthone
- Dehydration/wilting ([8]; Example 162, radish, vapor, control 5 days): less dehydration/wilting
- Spoilage Time - Sample (Shriveling) ([8]; Radish, 2 hrs P-E, control 5 days): 5 days
- Shelf-life of flowery vegetables [3]: extended shelf-life

Compound: Ammonium carbonate
- Spoilage Time - Sample (Color loss) ([7]; Ground Beef): 2+ days
- Spoilage Time - Sample (Color loss) ([7]; Ground Chicken): 2+ days
- Spoilage Time - Sample (Color loss) ([7]; Tilapia fish fillet): 2+ days
- Improvements with meat and fish ([7]; meat and fish): demonstrated improvements
- Shelf-life of flowery vegetables [3]: extended shelf-life
- Effectiveness as shelf-life extender ([3]; tofu): effective

Reference: US12193465B2, “Materials and methods for extending shelf-life of foods” (JP Laboratories, Inc., priority 2021, dated 2025)
